Data published in paper PMC2806030, “Inhibition of mammalian S6 kinase by resveratrol suppresses autophagy” (Aging (Albany NY), 2009).

Experiments:
p70 S6 kinase (S6K1) = molecular target: T1, p70 S6 kinase (S6K1) (Rattus norvegicus, UniProt P67999); experiment: in vitro […] kinase assay with immunoprecipitated HA-S6K1 and GST-S6 substrate; also KinaseProfiler screen at […]; format: biochemical
T1 construct: gene Rps6kb1; HA-tagged S6K1 wt immunoprecipitated from HEK293 cells

PKA(h) = molecular target: T2, PKA(h) (Homo sapiens, UniProt P17612); experiment: biochemical; parameters: Upstate KinaseProfiler in vitro kinase activity assay, per cent of DMSO control; conditions: read-out: Activity (% of Control)
T2 construct: gene PRKACA
Method: (§1) Kinase profile and kinase assay. A Kinase profile against 100 kinases listed for resveratrol at 20 μM was generated utilizing Upstate's KinaseProfiler™ service. Assay protocols for each kinase are available from Upstate (Lake Placid, NY). In vitro kinase assay was performed as described previously. Briefly, HEK293 cells were transfected with HA-S6K1 wt, HA-S6K1 K100R, or vector as indicated. Cells were treated with 1 μg/ml insulin for 10 minutes prior to harvesting in PBS + 0.5% NP-40 + protease and phosphatase inhibitors. 125 μg of lysate per sample was immunoprecipitated using 0.5 μg/sample of anti-HA High-Affinity (Roche, Basel Switzerland). Beads from immunoprecipitations were washed three times in lysis buffer and once in kinase buffer, and kinase assays were performed with recombinant GST-S6 as substrate (1 μg per assay). In the indicated lanes varying doses of resveratrol or DMSO control were added to the reaction prior to addition of the GST-S6 substrate. All samples were subjected to SDS-PAGE, and 32P incorporation was quantified by using a Bio-Rad (Hercules, CA) Phosphor-Imager and subsequent analysis with ImageJ (NIH).  Figure 4. Resveratrol inhibits S6K1 in vitro. (A) Structural similarity between resveratrol and quercetin, a known kinase inhibitor. (B) Kinase inhibition profile for resveratrol at 20 μM obtained using KinaseProfiler™ (Upstate). Dashed line represents 100% activity as compared to control. Black filled-in bar on the graph indicates S6K1. Complete data set is provided in Supplementary Table 1. Error bars represent s.d.m. (C) Phosphorylation of recombinant GST-tagged S6 by immunoprecipitated HA-S6K1 under increasing concentrations of resveratrol (Res). Autoradiograph depicts S6K1 phosphorylation of GST-S6. (D) Average of three separate kinase assay experiments as performed in (C). Densitometry was performed using NIH ImageJ. Error bars represent s.e.m. […] Therefore, we hypothesized that the effect of resveratrol on autophagy could be related to inhibition of one or more upstream kinases. To test this, we performed an in vitro kinase screen and determined an inhibition profile for resveratrol. […] With the exception of S6K1, these kinases play primary roles in the hematopoietic system, and were thus viewed as unlikely to have been responsible for the effect we were studying. […] On the other hand, S6K1 is known to play a requisite role in the regulation of autophagy in Drosophila, making it a promising candidate for the in vivo target of resveratrol that is responsible for inhibition of autophagy.

PDK1(h) = molecular target: T3, PDK1(h) (Homo sapiens, UniProt O15530); experiment: biochemical; parameters: Upstate KinaseProfiler in vitro kinase activity assay, per cent of DMSO control; conditions: read-out: Activity (% of Control)
T3 construct: gene PDPK1
T3 sequence (O15530 whole entry): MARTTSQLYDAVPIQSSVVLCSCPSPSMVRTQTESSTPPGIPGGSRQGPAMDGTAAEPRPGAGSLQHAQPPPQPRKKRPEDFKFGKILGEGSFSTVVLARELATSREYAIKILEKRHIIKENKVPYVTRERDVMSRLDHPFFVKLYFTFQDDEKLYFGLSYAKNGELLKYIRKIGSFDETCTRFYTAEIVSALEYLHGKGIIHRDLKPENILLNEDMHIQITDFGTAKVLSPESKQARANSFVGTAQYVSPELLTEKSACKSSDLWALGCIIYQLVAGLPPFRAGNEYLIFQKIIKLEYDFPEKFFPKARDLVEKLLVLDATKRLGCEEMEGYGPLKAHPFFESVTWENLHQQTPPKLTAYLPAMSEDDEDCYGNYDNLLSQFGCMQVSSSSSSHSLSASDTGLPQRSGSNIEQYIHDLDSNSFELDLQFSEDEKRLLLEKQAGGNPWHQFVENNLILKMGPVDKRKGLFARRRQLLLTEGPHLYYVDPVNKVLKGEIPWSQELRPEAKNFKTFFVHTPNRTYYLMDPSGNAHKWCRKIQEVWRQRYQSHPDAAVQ
Method: as §1

Abl(T315I)(h) = molecular target: T4, Abl(T315I)(h) (Homo sapiens, UniProt P00519, T315I); experiment: biochemical; parameters: Upstate KinaseProfiler in vitro kinase activity assay, per cent of DMSO control; conditions: read-out: Activity (% of Control)
T4 construct: gene ABL1
Method: as §1

IKKß(h) = molecular target: T5, IKKß(h) (Homo sapiens, UniProt O14920); experiment: biochemical; parameters: Upstate KinaseProfiler in vitro kinase activity assay, per cent of DMSO control; conditions: read-out: Activity (% of Control)
T5 construct: gene IKBKB
Method: as §1

PAK2(h) = PAK2(h) (Homo sapiens, UniProt Q13177); experiment: biochemical; parameters: Upstate KinaseProfiler in vitro kinase activity assay, per cent of DMSO control; conditions: read-out: Activity (% of Control)
Method: as §1

JNK3(h) = molecular target: T6, JNK3(h) (Homo sapiens, UniProt P53779); experiment: biochemical; parameters: Upstate KinaseProfiler in vitro kinase activity assay, per cent of DMSO control; conditions: read-out: Activity (% of Control)
T6 construct: gene MAPK10
Method: as §1

IGF-1R(h) = molecular target: T7, IGF-1R(h) (Homo sapiens, UniProt P08069); experiment: biochemical; parameters: Upstate KinaseProfiler in vitro kinase activity assay, per cent of DMSO control; conditions: read-out: Activity (% of Control)
T7 construct: gene IGF1R
T7 sequence (P08069 whole entry): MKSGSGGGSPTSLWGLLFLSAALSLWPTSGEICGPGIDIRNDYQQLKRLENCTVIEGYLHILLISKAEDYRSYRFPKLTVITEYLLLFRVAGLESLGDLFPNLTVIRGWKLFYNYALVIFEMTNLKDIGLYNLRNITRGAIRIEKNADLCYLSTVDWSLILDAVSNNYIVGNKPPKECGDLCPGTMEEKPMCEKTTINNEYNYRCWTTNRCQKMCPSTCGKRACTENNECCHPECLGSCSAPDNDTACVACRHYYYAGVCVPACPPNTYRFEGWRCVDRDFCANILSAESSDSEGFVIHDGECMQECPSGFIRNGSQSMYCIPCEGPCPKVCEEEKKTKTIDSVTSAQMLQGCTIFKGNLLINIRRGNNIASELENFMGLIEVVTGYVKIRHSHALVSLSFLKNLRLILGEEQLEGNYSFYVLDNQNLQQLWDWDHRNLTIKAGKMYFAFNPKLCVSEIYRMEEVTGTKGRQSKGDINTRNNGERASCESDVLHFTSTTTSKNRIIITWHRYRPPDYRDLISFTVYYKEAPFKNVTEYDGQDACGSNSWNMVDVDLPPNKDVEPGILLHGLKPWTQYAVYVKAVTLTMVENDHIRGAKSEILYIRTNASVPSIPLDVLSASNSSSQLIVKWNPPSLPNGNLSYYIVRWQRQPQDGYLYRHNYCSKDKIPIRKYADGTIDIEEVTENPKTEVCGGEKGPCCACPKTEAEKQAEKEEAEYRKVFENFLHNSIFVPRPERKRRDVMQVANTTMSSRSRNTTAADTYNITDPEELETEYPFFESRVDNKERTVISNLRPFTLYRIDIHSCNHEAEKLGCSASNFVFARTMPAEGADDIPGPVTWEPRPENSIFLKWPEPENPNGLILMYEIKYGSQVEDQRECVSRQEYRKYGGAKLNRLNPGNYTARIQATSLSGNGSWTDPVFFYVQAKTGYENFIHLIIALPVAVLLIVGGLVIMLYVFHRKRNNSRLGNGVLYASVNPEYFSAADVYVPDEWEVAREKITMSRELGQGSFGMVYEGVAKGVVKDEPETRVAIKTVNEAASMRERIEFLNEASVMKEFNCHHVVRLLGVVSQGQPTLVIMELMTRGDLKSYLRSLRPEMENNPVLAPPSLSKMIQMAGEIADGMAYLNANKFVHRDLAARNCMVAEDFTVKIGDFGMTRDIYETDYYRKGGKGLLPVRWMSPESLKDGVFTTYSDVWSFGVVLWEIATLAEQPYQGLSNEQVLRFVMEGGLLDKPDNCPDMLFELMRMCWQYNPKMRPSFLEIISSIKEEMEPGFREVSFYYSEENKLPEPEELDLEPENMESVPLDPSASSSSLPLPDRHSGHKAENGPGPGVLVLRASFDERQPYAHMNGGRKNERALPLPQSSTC
Method: as §1

SAPK2a(T106M)(h) = molecular target: T8, SAPK2a(T106M)(h) (Homo sapiens, UniProt Q16539, T106M); experiment: biochemical; parameters: Upstate KinaseProfiler in vitro kinase activity assay, per cent of DMSO control; conditions: read-out: Activity (% of Control)
T8 construct: gene MAPK14
Method: as §1

DAPK1(h) = DAPK1(h) (Homo sapiens, UniProt P53355); experiment: biochemical; parameters: Upstate KinaseProfiler in vitro kinase activity assay, per cent of DMSO control; conditions: read-out: Activity (% of Control)
DAPK1(h), sequence (P53355 whole entry): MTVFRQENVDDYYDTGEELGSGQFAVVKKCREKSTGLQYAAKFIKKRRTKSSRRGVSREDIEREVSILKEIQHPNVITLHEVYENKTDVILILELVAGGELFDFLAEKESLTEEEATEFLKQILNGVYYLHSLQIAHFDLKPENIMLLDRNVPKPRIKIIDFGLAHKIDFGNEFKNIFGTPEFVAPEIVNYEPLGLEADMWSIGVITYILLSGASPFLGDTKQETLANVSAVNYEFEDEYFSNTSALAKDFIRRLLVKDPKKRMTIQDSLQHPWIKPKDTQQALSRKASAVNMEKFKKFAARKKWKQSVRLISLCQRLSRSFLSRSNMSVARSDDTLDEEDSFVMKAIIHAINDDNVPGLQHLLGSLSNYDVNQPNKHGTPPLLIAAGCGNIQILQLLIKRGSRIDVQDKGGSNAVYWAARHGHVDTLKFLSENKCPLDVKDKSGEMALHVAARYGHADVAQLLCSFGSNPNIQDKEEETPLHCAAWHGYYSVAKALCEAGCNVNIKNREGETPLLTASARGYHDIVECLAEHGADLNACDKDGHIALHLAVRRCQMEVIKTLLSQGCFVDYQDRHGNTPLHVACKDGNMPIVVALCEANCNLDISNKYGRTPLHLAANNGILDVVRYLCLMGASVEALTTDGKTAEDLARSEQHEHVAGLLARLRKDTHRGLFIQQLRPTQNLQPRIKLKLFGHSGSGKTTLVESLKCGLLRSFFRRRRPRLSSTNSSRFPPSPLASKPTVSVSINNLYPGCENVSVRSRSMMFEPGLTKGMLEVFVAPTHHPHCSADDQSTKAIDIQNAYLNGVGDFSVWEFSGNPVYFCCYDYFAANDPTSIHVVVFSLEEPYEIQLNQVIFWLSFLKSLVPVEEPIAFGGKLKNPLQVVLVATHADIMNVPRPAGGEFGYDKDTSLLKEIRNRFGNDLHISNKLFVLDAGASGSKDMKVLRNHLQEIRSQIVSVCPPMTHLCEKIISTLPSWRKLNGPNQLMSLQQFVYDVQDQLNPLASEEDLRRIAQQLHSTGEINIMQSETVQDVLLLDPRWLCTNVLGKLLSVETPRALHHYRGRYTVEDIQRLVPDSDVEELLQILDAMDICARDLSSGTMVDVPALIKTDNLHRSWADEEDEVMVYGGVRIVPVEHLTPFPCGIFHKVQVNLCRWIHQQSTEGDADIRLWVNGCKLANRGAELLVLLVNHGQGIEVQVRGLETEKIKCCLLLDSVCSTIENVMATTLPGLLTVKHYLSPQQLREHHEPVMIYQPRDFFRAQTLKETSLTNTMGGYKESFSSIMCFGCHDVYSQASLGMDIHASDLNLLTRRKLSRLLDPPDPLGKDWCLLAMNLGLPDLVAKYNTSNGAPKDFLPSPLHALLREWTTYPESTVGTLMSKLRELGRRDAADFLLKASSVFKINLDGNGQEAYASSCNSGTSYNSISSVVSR
Method: as §1

p70S6K(h) = molecular target: T9, p70S6K(h) (Homo sapiens, UniProt P23443); experiment: biochemical; parameters: Upstate KinaseProfiler in vitro kinase activity assay, per cent of DMSO control; conditions: read-out: Activity (% of Control)
T9 construct: gene RPS6KB1
Method: as §1

SAPK4(h) = molecular target: T10, SAPK4(h) (Homo sapiens, UniProt O15264); experiment: biochemical; parameters: Upstate KinaseProfiler in vitro kinase activity assay, per cent of DMSO control; conditions: read-out: Activity (% of Control)
T10 construct: gene MAPK13
Method: as §1

SAPK2a(h) = molecular target: T11, SAPK2a(h) (Homo sapiens, UniProt Q16539); experiment: biochemical; parameters: Upstate KinaseProfiler in vitro kinase activity assay, per cent of DMSO control; conditions: read-out: Activity (% of Control)
T11 construct: gene MAPK14
Method: as §1

Pim-1 [1] = molecular target: T12, Pim-1 (Homo sapiens, UniProt P11309); experiment: biochemical; parameters: Upstate KinaseProfiler in vitro kinase activity assay, per cent of DMSO control; conditions: read-out: Activity (% of Control)
T12 construct: gene PIM1
T12 sequence (P11309 whole entry): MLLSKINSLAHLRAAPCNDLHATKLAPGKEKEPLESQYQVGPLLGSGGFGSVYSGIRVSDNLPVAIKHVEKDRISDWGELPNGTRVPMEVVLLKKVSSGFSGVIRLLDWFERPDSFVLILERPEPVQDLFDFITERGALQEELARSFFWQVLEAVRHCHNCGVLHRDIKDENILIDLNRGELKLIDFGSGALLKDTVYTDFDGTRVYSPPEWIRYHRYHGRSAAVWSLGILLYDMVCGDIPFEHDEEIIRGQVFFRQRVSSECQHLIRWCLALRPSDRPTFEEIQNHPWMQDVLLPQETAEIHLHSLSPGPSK
Method: as §1

TrkA(h) = molecular target: T13, TrkA(h) (Homo sapiens, UniProt P04629); experiment: biochemical; parameters: Upstate KinaseProfiler in vitro kinase activity assay, per cent of DMSO control; conditions: read-out: Activity (% of Control)
T13 construct: gene NTRK1
T13 sequence (P04629 whole entry): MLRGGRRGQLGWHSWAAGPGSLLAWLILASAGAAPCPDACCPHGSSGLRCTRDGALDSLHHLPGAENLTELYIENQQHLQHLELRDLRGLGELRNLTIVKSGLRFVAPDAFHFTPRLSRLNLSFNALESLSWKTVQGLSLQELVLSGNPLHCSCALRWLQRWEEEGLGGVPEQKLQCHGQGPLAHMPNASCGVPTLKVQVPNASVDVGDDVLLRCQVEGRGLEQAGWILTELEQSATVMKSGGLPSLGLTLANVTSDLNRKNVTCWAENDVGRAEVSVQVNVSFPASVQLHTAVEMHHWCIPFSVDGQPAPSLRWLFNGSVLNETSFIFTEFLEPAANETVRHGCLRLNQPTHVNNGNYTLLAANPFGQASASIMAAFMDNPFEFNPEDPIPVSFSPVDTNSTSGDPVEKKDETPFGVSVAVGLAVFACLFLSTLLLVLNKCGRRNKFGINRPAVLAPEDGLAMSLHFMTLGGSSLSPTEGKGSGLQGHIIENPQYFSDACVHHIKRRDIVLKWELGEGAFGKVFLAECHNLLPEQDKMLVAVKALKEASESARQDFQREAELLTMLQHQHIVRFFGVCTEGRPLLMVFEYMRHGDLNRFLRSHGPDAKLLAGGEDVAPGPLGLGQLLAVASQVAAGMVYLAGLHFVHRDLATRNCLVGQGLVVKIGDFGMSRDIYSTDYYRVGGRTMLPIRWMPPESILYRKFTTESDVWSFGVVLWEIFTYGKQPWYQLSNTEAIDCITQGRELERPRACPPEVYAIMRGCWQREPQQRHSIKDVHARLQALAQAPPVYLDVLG
Method: as §1

Rsk2(h) = molecular target: T14, Rsk2(h) (Homo sapiens, UniProt P51812); experiment: biochemical; parameters: Upstate KinaseProfiler in vitro kinase activity assay, per cent of DMSO control; conditions: read-out: Activity (% of Control)
T14 construct: gene RPS6KA3
Method: as §1

Pim-2 = molecular target: T15, Pim-2 (Homo sapiens, UniProt Q9P1W9); experiment: in vitro kinase screen (Upstate KinaseProfiler), single dose […]; format: biochemical
T15 construct: gene PIM2
T15 sequence (Q9P1W9 whole entry): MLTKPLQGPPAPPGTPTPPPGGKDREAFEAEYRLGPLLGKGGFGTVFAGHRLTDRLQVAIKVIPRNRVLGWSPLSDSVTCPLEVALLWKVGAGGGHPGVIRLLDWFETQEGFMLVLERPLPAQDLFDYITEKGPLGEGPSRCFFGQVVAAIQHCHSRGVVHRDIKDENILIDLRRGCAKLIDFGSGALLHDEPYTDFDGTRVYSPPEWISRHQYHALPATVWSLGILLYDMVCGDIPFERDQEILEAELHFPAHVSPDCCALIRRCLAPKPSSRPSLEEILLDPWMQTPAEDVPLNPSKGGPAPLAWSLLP

Pim-1 [2] = molecular target: T12, Pim-1; experiment: as above; format: biochemical

SMILES: Oc1ccc(/C=C/c2cc(O)cc(O)c2)cc1 [Res, resveratrol]
- IC50 (p70 S6 kinase (S6K1)): ~25 µM
- remaining activity at 20 µM (PKA(h)): 100%
- remaining activity at 20 µM (PDK1(h)): 108 ± 7%
- remaining activity at 20 µM (Abl(T315I)(h)): 100 ± 2%
- remaining activity at 20 µM (IKKß(h)): 116 ± 2%
- remaining activity at 20 µM (PAK2(h)): 98 ± 4%
- remaining activity at 20 µM (JNK3(h)): 98 ± 3%
- remaining activity at 20 µM (IGF-1R(h)): 75%
- remaining activity at 20 µM (SAPK2a(T106M)(h)): 102 ± 2%
- remaining activity at 20 µM (DAPK1(h)): 71 ± 3%
- remaining activity at 20 µM (p70S6K(h)): 21 ± 1%
- remaining activity at 20 µM (SAPK4(h)): 92 ± 4%
- remaining activity at 20 µM (SAPK2a(h)): 100 ± 4%
- remaining activity at 20 µM (Pim-1 [1]): 6 ± 2%
- remaining activity at 20 µM (TrkA(h)): 31 ± 3%
- remaining activity at 20 µM (Rsk2(h)): 32%
- in vitro kinase screen (Upstate KinaseProfiler), single dose 20 μM (Pim-2): Jak2, NLK, p70 S6 kinase (S6K1), Pim-1, and Pim-2 emerged as potential targets of resveratrol
- in vitro kinase screen (Upstate KinaseProfiler), single dose 20 μM (Pim-1 [2]): Jak2, NLK, p70 S6 kinase (S6K1), Pim-1, and Pim-2 emerged as potential targets of resveratrol
